Test system: L02; call rule not given here
Experiment: Hepatoprotective activity in human L02 cells assessed as reduction in D-galactosamine-induced cell damage at 0.1 to 1000 uM pre-incubated at 37 degC for 24 hrs before D-galactosamine challenge for 24 hrs by SRB method
Assay type: functional, cell-based
[1] = Homo sapiens, L02, read-out: EC50

| Compound | EC50 (l02) | EC50 [1] [µM] |
| --- | --- | --- |
| CC(=O)OC[C@]12CC[C@@]34C[C@@]35CC[C@H](O[C@@H]3OC[C@@H](O)[C@H](O)[C@H]3O)C(C)(C)[C@@H]5CC[C@H]4[C@]1(C)[C@@H](O)[C@H](OC(C)=O)[C@@H]2[C@]1(C)CC[C@H](C(C)(C)O)O1 | Not Active |  |
| CC(=O)O[C@H]1[C@H](O)[C@H]([C@]2(C)CC[C@H](C(C)(C)O)O2)[C@@]2(C)CC[C@@]34C[C@@]35CC[C@H](O[C@@H]3OC[C@@H](O)[C@H](O)[C@H]3O)C(C)(C)[C@@H]5CC[C@H]4[C@]12C | Not Active |  |
| CC(C)(O)[C@H]1CC[C@@](C)([C@H]2[C@@H](O)[C@H](O)[C@@]3(C)[C@@H]4CC[C@H]5C(C)(C)[C@@H](O[C@@H]6OC[C@@H](O)[C@H](O)[C@H]6O)CC[C@@]56C[C@@]46C[C@H](O)[C@]23C)O1 |  | 70.8 |
| CC(=O)O[C@H]1[C@H](OC(C)=O)[C@@]2(C)[C@@H]3CC[C@H]4C(C)(C)[C@@H](O)CC[C@@]45C[C@@]35C[C@@H](O)[C@]2(C)[C@H]1[C@]1(C)CC[C@H](C(C)(C)O)O1 (mixture of isomers) |  | 10.7 |
| CC(C)(O)[C@H]1CC[C@@](C)([C@H]2C(=O)[C@H](O)[C@@]3(C)[C@@H]4CC[C@H]5C(C)(C)[C@@H](O[C@@H]6OC[C@@H](O)[C@H](O)[C@H]6O)CC[C@@]56C[C@@]46C[C@H](O)[C@]23C)O1 (relative stereo) |  | 78.6 |
| CC(C)(O)[C@H]1CC[C@@](C)([C@H]2C(=O)[C@H](O)[C@@]3(C)[C@@H]4CC[C@H]5C(C)(C)[C@@H](O)CC[C@@]56C[C@@]46C[C@H](O)[C@]23C)O1 (relative stereo) | Not Active |  |
| CC(C)(O)[C@H]1CC[C@@](C)([C@H]2[C@@H](O)[C@H](O)[C@@]3(C)[C@@H]4CC[C@H]5C(C)(C)[C@@H](O[C@@H]6OC[C@@H](O)[C@H](O)[C@H]6O)CC[C@@]56C[C@@]46C[C@H](O)[C@]23CO)O1 (relative stereo) |  | 48.9 |
| CC(C)(O)[C@H]1CC[C@@](C)([C@H]2[C@@H](O)[C@H](O)[C@@]3(C)[C@@H]4CC[C@H]5C(C)(C)[C@@H](O[C@@H]6OC[C@@H](O)[C@H](O)[C@H]6O)CC[C@@]56C[C@@]46C[C@@H](O)[C@]23C)O1 (relative stereo) |  | 61.6 |
